# Earlier results as cited in US8067401B2, “Compounds and compositions for treating infection” (priority 2007, dated 2011).
# Tested on: HIV-1
substance,measurement,value
Prunellin,minimum inhibition concentration against HIV-1 in vitro,2.2 µg/mL
